Data set [1] can be described thus: Heating of strontium malonate sesquihydrate to remove bound crystal water. It is filed as physicochemical. The procedure:
The crystal water was irreversibly detached from the malonate at temperatures above approx. 70° C. Thus, anhydrous strontium malonate was produced in high yield and high purity by boiling a solution of strontium malonate.

Another data set concerns new vertebral fracture. Conditions: cited from earlier work.

Data on two compounds can be found in US20090137678A1, “HIGH YIELD SYNTHESIS METHODS FOR PRODUCING ORGANIC SALTS OF STRONTIUM” (priority 2005, published 2009).

Turning to `O.O.O.O=C([O-])CC(=O)[O-].O=C([O-])CC(=O)[O-].[Sr+2].[Sr+2]` [strontium malonate sesquihydrate], in data set [1], the “temperature above which crystal water is irreversibly detached” value is above 70 °C.

For `N#Cc1c(N(CC(=O)[O-])CC(=O)[O-])sc(C(=O)[O-])c1CC(=O)[O-].[Sr+2].[Sr+2]` [strontium ranelate], the “RR of new vertebral fracture vs placebo” value with new vertebral fracture (95% CI=0.48-0.73, P<0.001) is reported as 0.59. In addition, the “serum cross-linked C terminal telopeptides of type I collagen (CTX, marker of bone resorption)” value in the data set on new vertebral fracture (clinical studies, serum) is given as “decreased”. In the data set with new vertebral fracture (clinical studies), the “bone formation marker BSAP” value is “increased”. The “patients who sustained a new vertebral fracture” value with new vertebral fracture (strontium treated group, vs 222 in the placebo group, more than 7000 individuals) is recorded as 139 patients.
